Measured values taken from patent US20210094955A1, “SALT AND CRYSTAL OF TRIAZOLOPYRAZINE DERIVATIVE” (priority 2017, published 2021).
Values after ≈ are worked out from the molar mass of the structure shown.

Tests used:
[1] = Solubility test, Test Method 1 (sample approx. 150 μg/mL, shaken 10 minutes at room temperature, filtrate quantified by HPLC); format: physicochemical; conditions: approx. 150 μg/mL added, in terms of free form
Description: Test Method of Free Form, Hydrochloride, Hydrobromide, Sulfate, Methanesulfonate, and Benzenesulfonate […] In order to uniformly disperse the sample in the dissolving solution, the sample was irradiated with ultrasonic waves in a water tank for a short time, and then vigorously shaken at room temperature for 10 minutes using a shaker SA-31 manufactured by Yamato Scientific Co., Ltd. The solution after shaken was filtered with a filter, and a concentrations of the compound in filtrate was quantified by HPLC. The following was used as the dissolving solution. […] JP2 (Japanese Pharmacopoeia 2nd Fluid for disintegration test): manufactured by Nacalai Tesque Inc. JP2+TC: Add sodium taurocholate to Japanese Pharmacopoeia 2nd Fluid for disintegration test to obtain a concentration of 15 mM. FaSSIF (artificial intestinal fluid (fasted state)): […] FeSSIF (artificial intestinal fluid (fed state)): […] Measurement conditions of free form, hydrochloride, hydrobromide, sulfate, methanesulfonate, and benzenesulfonate) Equipment: LC-1260 manufactured by Agilent Technologies Mobile phase: A: 0.01 M aqueous solution of ammonium acetate, B: 0.01 M methanol solution of ammonium acetate Flow rate: 0.3 mL/min Column: Develosil Combi-RP-5 5 μm (2.0 mm×50 mm) Column temperature: 40° C. […] Ex indicates Example Number to be described later.

[2] = Solubility test, Test Method 2 (sample approx. 300 μg/mL, shaken 10 minutes at room temperature, filtrate quantified by HPLC); format: physicochemical; conditions: approx. 300 μg/mL added, in terms of free form
Description: JP1 (Japanese Pharmacopoeia 1st Fluid for disintegration test): manufactured by Nacalai Tesque Inc.
JP2 (Japanese Pharmacopoeia 2nd Fluid for disintegration test): manufactured by Nacalai Tesque Inc.
JP2+TC: Add sodium taurocholate to Japanese Pharmacopoeia 2nd Fluid for disintegration test to obtain a concentration of 15 mM.
FaSSIF (artificial intestinal fluid (fasted state)): To 1 L of water, 3 mmol of sodium taurocholate, 0.75 mmol of lecithin, 3.9 g of potassium dihydrogen phosphate, and 7.7 g of potassium chloride are added, and a pH thereof is adjusted to approximately 6.5 using sodium hydroxide.
FeSSIF (artificial intestinal fluid (fed state)): To 1 L of water, 15 mmol of sodium taurocholate, 3.75 mmol of lecithin, 8.65 g of acetic acid, and 15.2 g of potassium chloride are added, and a pH is adjusted to approximately 5.0 using sodium hydroxide.
Test Method 2: Test Method for p-Toluenesulfonate and 1-Hydroxy-2-Naphthoate
Into a 10 mL centrifuge tube, 1 to 1.3 mg of a sample was weighed, and each dissolving solution (see below) was added thereto to be approximately 300 μg/mL. In order to uniformly disperse the sample in the dissolving solution, the sample was irradiated with ultrasonic waves in a water tank for a short time, and then vigorously shaken at room temperature for 10 minutes using a shaker SA-31 manufactured by Yamato Scientific Co., Ltd. The solution after shaken was filtered with a filter, and a concentration of the compound in filtrate was quantified by HPLC. The same dissolving solution as in Test Method 1 was used.
(Measurement condition 2 using HPLC: Measurement conditions of p-toluenesulfonate and 1-hydroxy-2-naphthoate)
Equipment: LC-1260 manufactured by Agilent Technologies
Mobile phase: A: 0.1% aqueous perchloric acid, B: methanol
Column: YMC-Triart C18 S-3 μm (2.0 mm×50 mm)
Column temperature: 40° C.
Detection wavelength: 254 nm
Ex indicates Example Number to be described later.

[3] = pH 1.2, simulated gastric fluid, thermodynamic from solid, JP1 (Japanese Pharmacopoeia 1st Fluid for disintegration test), 10 minutes shaking, read-out: Solubility JP1
[4] = pH 5, thermodynamic from solid, FeSSIF (artificial intestinal fluid, fed state), pH approx. 5.0, 10 minutes shaking, read-out: Solubility FeSSIF
[5] = pH 6.5, thermodynamic from solid, FaSSIF (artificial intestinal fluid, fasted state), pH approx. 6.5, 10 minutes shaking, read-out: Solubility FaSSIF
[6] = pH 6.8, aqueous buffer, thermodynamic from solid, JP2 (Japanese Pharmacopoeia 2nd Fluid for disintegration test), 10 minutes shaking, read-out: Solubility JP2
[7] = pH 6.8, fassgf or other biorelevant, thermodynamic from solid, JP2 with 15 mM sodium taurocholate, 10 minutes shaking, read-out: Solubility JP2 + TC

Row | SMILES | solubility at 10 min [1, 3] [µg/mL] | solubility at 10 min [1, 4] [µg/mL] | solubility at 10 min [1, 5] [µg/mL] | solubility at 10 min [1, 6] [µg/mL] | solubility at 10 min [1, 7] [µg/mL] | further results
1 | Cc1nsc(-c2nnc3n2CCN(C(=O)c2ccc(F)cc2)[C@@H]3C)n1.O=S(=O)(O)c1ccccc1 [Example 7, (4-fluorophenyl)[(8R)-8-methyl-3-(3-methyl-1,2,4-thiadiazol-5-yl)-5,6-dihydro[1,2,4]triazolo[4,3-a]pyrazin-7(8H)-yl]methanone benzenesulfonate] | > 100 | > 100 | > 100 | > 100 | > 100 | 
2 | Cc1nsc(-c2nnc3n2CCN(C(=O)c2ccc(F)cc2)[C@@H]3C)n1.O=C(O)c1ccc2ccccc2c1O [Example 8, (4-fluorophenyl)[(8R)-8-methyl-3-(3-methyl-1,2,4-thiadiazol-5-yl)-5,6-dihydro[1,2,4]triazolo[4,3-a]pyrazin-7(8H)-yl]methanone 1-hydroxy-2-naphthoate] |  |  |  |  |  | Solubility FaSSIF ([2]; FaSSIF (artificial intestinal fluid, fasted state), pH approx. 6.5, 10 minutes shaking): >100 µg/mL; Solubility FeSSIF ([2]; FeSSIF (artificial intestinal fluid, fed state), pH approx. 5.0, 10 minutes shaking): >100 µg/mL; Solubility JP1 ([2]; JP1 (Japanese Pharmacopoeia 1st Fluid for disintegration test), 10 minutes shaking): 58.9 µg/mL; Solubility JP2 ([2]; JP2 (Japanese Pharmacopoeia 2nd Fluid for disintegration test), 10 minutes shaking): >100 µg/mL; Solubility JP2 + TC ([2]; JP2 with 15 mM sodium taurocholate, 10 minutes shaking): >100 µg/mL
3 | Cc1nsc(-c2nnc3n2CCN(C(=O)c2ccc(F)cc2)[C@@H]3C)n1 [Compound A, (4-fluorophenyl)[(8R)-8-methyl-3-(3-methyl-1,2,4-thiadiazol-5-yl)-5,6-dihydro[1,2,4]triazolo[4,3-a]pyrazin-7(8H)-yl]methanone, reference compound] | 66.6 (≈ 186 µM) | 31.9 (≈ 89 µM) | 36.5 (≈ 102 µM) | 65.4 (≈ 182 µM) | 82.9 | 
4 | CS(=O)(=O)O.Cc1nsc(-c2nnc3n2CCN(C(=O)c2ccc(F)cc2)[C@@H]3C)n1 [Example 6, (4-fluorophenyl)[(8R)-8-methyl-3-(3-methyl-1,2,4-thiadiazol-5-yl)-5,6-dihydro[1,2,4]triazolo[4,3-a]pyrazin-7(8H)-yl]methanone methanesulfonate] | > 100 | > 100 | > 100 | > 100 | > 100 | 
5 | Cc1nsc(-c2nnc3n2CCN(C(=O)c2ccc(F)cc2)[C@@H]3C)n1.Cl [Example 1, (4-fluorophenyl)[(8R)-8-methyl-3-(3-methyl-1,2,4-thiadiazol-5-yl)-5,6-dihydro[1,2,4]triazolo[4,3-a]pyrazin-7(8H)-yl]methanone hydrochloride] | > 100 | > 100 | > 100 | > 100 | > 100 | 
6 | Br.Cc1nsc(-c2nnc3n2CCN(C(=O)c2ccc(F)cc2)[C@@H]3C)n1 [Example 2, (4-fluorophenyl)[(8R)-8-methyl-3-(3-methyl-1,2,4-thiadiazol-5-yl)-5,6-dihydro[1,2,4]triazolo[4,3-a]pyrazin-7(8H)-yl]methanone hydrobromide] | > 100 | > 100 | > 100 | > 100 | > 100 | 
7 | Cc1ccc(S(=O)(=O)O)cc1.Cc1nsc(-c2nnc3n2CCN(C(=O)c2ccc(F)cc2)[C@@H]3C)n1 [Example 5, (4-fluorophenyl)[(8R)-8-methyl-3-(3-methyl-1,2,4-thiadiazol-5-yl)-5,6-dihydro[1,2,4]triazolo[4,3-a]pyrazin-7(8H)-yl]methanone p-toluenesulfonate] |  |  |  |  |  | solubility at 10 min [2, 3]: > 100 µg/mL; solubility at 10 min [2, 4]: > 100 µg/mL; solubility at 10 min [2, 5]: > 100 µg/mL; solubility at 10 min ([2]; pH 6.8, fassgf or other biorelevant, thermodynamic from solid, JP2 (Japanese Pharmacopoeia 2nd Fluid for disintegration test), 10 minutes shaking, read-out: Solubility JP2): > 100 µg/mL; solubility at 10 min [2, 7]: > 100 µg/mL
8 | Cc1nsc(-c2nnc3n2CCN(C(=O)c2ccc(F)cc2)[C@@H]3C)n1.O=S(=O)(O)O [Example 3, (4-fluorophenyl)[(8R)-8-methyl-3-(3-methyl-1,2,4-thiadiazol-5-yl)-5,6-dihydro[1,2,4]triazolo[4,3-a]pyrazin-7(8H)-yl]methanone sulfate] | > 100 | > 100 | > 100 | > 100 | > 100 | 
